Assay results: patent US7524853B2 (Solvay Pharmaceuticals B.V., priority 2003, dated 2009)

Tests used:
Type in all cases: cell-based
[1] = target: T1, 17β-hydroxysteroid dehydrogenase type 3 (17β-HSD type 3) (Homo sapiens, UniProt P37058); assay: Inhibition of 17β-HSD type 3 in MCF-7 cells stably expressing the isoenzyme (tritium labeled androstenedione conversion, HPLC); conditions: MCF-7 cells expressing 17β-HSD type 3, 2 nM tritium labeled androstenedione; for inhibition at 1 µM / inhibition at 10 µM: MCF7; for inhibition at 1 µM / % Inhibition HSD3 1 μM: 1 μM test compound; for inhibition at 1 µM: read-out: % Inhibition HSD3 1 μM; for inhibition at 10 µM / % Inhibition HSD3 10 μM: 10 μM test compound; for inhibition at 10 µM: read-out: % Inhibition HSD3 10 μM
T1 construct: expressed in transfected cells; host or cells: MCF-7
T1 sequence (P37058 1-310): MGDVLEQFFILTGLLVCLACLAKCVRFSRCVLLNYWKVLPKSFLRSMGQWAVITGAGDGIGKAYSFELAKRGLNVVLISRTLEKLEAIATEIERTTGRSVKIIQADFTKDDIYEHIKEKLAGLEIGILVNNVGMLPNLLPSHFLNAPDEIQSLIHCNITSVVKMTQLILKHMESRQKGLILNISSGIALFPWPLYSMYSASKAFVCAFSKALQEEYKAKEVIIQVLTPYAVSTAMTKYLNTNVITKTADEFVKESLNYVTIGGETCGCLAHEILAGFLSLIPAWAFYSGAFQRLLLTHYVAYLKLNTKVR
How it was run: (§1)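 Percent inhibition derived by comparing substrate conversion with versus without compound, quantified by HPLC–radioflow detection after TCA stop. Cells were stably transfected MCF-7 expressing type 1, 2 or 3 enzyme, given 2 nM labeled estrone, estradiol or androstenedione respectively; compounds tested at two concentrations.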

[2] = target: T2, 17β-hydroxysteroid dehydrogenase type 1 (17β-HSD type 1) (Homo sapiens, UniProt P14061); assay: Inhibition of 17β-HSD type 1 in MCF-7 cells stably expressing the isoenzyme (tritium labeled estrone conversion, HPLC); conditions: MCF-7 cells expressing 17β-HSD type 1, 2 nM tritium labeled estrone; for inhibition at 1 µM / inhibition at 10 µM: MCF7; for inhibition at 1 µM / % Inhibition HSD1 1 μM: 1 μM test compound; for inhibition at 1 µM: read-out: % Inhibition HSD1 1 μM; for inhibition at 10 µM / % Inhibition HSD1 10 μM: 10 μM test compound; for inhibition at 10 µM: read-out: % Inhibition HSD1 10 μM
T2 construct: expressed in transfected cells; host or cells: MCF-7
T2 sequence (P14061 1-328): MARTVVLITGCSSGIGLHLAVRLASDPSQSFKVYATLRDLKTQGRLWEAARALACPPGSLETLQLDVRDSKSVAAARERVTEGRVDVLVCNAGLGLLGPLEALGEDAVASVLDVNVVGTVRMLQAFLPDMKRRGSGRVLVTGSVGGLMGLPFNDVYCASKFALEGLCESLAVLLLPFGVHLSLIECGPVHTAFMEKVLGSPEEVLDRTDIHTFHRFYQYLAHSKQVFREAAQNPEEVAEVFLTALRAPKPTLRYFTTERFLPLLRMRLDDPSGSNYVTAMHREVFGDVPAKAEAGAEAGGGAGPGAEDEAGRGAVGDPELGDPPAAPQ
How it was run: as §1

[3] = target: T3, 17β-hydroxysteroid dehydrogenase type 2 (17β-HSD type 2) (Homo sapiens, UniProt P37059); assay: Inhibition of 17β-HSD type 2 in MCF-7 cells stably expressing the isoenzyme (tritium labeled estradiol conversion, HPLC); conditions: MCF-7 cells expressing 17β-HSD type 2, 2 nM tritium labeled estradiol; for inhibition at 1 µM / inhibition at 10 µM: MCF7; for inhibition at 1 µM / % Inhibition HSD2 1 μM: 1 μM test compound; for inhibition at 1 µM: read-out: % Inhibition HSD2 1 μM; for inhibition at 10 µM / % Inhibition HSD2 10 μM: 10 μM test compound; for inhibition at 10 µM: read-out: % Inhibition HSD2 10 μM
T3 construct: expressed in transfected cells; host or cells: MCF-7
T3 sequence (P37059 1-387): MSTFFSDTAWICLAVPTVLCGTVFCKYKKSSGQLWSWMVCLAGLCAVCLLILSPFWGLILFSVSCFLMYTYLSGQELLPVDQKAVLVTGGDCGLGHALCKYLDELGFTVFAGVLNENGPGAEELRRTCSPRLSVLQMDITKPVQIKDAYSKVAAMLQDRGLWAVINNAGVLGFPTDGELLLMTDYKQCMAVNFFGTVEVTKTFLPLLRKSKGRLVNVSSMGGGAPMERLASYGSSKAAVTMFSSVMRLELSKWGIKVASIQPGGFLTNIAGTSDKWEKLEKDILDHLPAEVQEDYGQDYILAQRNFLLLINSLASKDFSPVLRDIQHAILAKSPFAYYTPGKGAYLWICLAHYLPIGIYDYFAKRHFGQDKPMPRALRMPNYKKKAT
How it was run: as §1

## COc1cc(-c2nc3sc4c(Cl)c(C=O)ccc4c3c(=O)n2Cc2ccccc2)c(Cl)c(OC)c1OC [No. 150, 3-Benzyl-8-chloro-2-(2-chloro-3,4,5-trimethoxyphenyl)-4-oxo-3,4-dihydro-benzo[4,5]thieno[2,3-d]pyrimidine-7-carbaldehyde]
[1]
  inhibition at 1 µM: -1.1%
  inhibition at 10 µM: 22%
[2]
  inhibition at 1 µM: 0.4%
  inhibition at 10 µM: 3.4%
[3]
  inhibition at 1 µM: 6.4%
  inhibition at 10 µM: 11.4%

## O=c1c2c(nc(CCC3CCCC3)n1CCc1ccccc1)sc1c(O)cccc12 [No. 627]
[1]
  % Inhibition HSD3 1 μM: 10.7%
  % Inhibition HSD3 10 μM: 33.9%
[2]
  % Inhibition HSD1 1 μM: 25.2%
  % Inhibition HSD1 10 μM: 26.6%
[3]
  % Inhibition HSD2 1 μM: 27.1%
  % Inhibition HSD2 10 μM: 22.6%

## CCCCC(CC)c1nc2sc3c(O)cccc3c2c(=O)n1CCc1ccccc1 (stereo not drawn) [No. 628]
[1]
  % Inhibition HSD3 1 μM: 12.4%
  % Inhibition HSD3 10 μM: 36.1%
[2]
  % Inhibition HSD1 1 μM: 11.4%
  % Inhibition HSD1 10 μM: 32.4%
[3]
  % Inhibition HSD2 1 μM: −0.9%
  % Inhibition HSD2 10 μM: 22.5%

## COCc1nc2sc3c(O)cccc3c2c(=O)n1CCc1ccccc1 [No. 629]
[1]
  % Inhibition HSD3 1 μM: 19.3%
  % Inhibition HSD3 10 μM: 35.9%
[2]
  % Inhibition HSD1 1 μM: 22.4%
  % Inhibition HSD1 10 μM: 33.1%
[3]
  % Inhibition HSD2 1 μM: 39.1%
  % Inhibition HSD2 10 μM: 71.7%

## O=c1c2c(nc(-c3ccc(F)cc3F)n1CCc1ccccc1)sc1c(O)cccc12 [No. 630]
[1]
  % Inhibition HSD3 1 μM: 10.9%
  % Inhibition HSD3 10 μM: 35.4%
[2]
  % Inhibition HSD1 1 μM: 25.1%
  % Inhibition HSD1 10 μM: 21.0%
[3]
  % Inhibition HSD2 1 μM: 24.7%
  % Inhibition HSD2 10 μM: 19.9%

## CCCCn1c(-c2ccccc2OC)nc2sc3c(O)cccc3c2c1=O [No. 633, 3-Butyl-8-hydroxy-2-(2-methoxy-phenyl)-3H-benzo[4,5]thieno[2,3-d]pyrimidin-4-one]
[1]
  inhibition at 1 µM: 62.3%
  inhibition at 10 µM: 91.7%
[2]
  inhibition at 1 µM: 30.6%
  inhibition at 10 µM: 60.9%
[3]
  inhibition at 1 µM: 33.2%
  inhibition at 10 µM: 64.6%

## CCCCn1c(CCC2CCCC2)nc2sc3c(O)cccc3c2c1=O [No. 634]
[1]
  % Inhibition HSD3 1 μM: 13.3%
  % Inhibition HSD3 10 μM: 56.4%
[2]
  % Inhibition HSD1 1 μM: 16.8%
  % Inhibition HSD1 10 μM: 17.9%
[3]
  % Inhibition HSD2 1 μM: 16.8%
  % Inhibition HSD2 10 μM: 20.1%

## CCCCC(CC)c1nc2sc3c(O)cccc3c2c(=O)n1CCCC (stereo not drawn) [No. 635]
[1]
  % Inhibition HSD3 1 μM: 11.6%
  % Inhibition HSD3 10 μM: 62.5%
[2]
  % Inhibition HSD1 1 μM: 4.9%
  % Inhibition HSD1 10 μM: 18.9%
[3]
  % Inhibition HSD2 1 μM: 15.4%
  % Inhibition HSD2 10 μM: 50.8%

## O=c1c2c(nc(CCc3ccccc3)n1CCc1cccs1)sc1c(O)cccc12 [No. 639]
[1]
  % Inhibition HSD3 1 μM: 33.6%
  % Inhibition HSD3 10 μM: 76.2%
[2]
  % Inhibition HSD1 1 μM: 22.6%
  % Inhibition HSD1 10 μM: 39.3%
[3]
  % Inhibition HSD2 1 μM: 18.2%
  % Inhibition HSD2 10 μM: 24.0%

## O=c1c2c(nc(Cc3ccccc3)n1CCc1cccs1)sc1c(O)cccc12 [No. 641]
[1]
  % Inhibition HSD3 1 μM: 13.2%
  % Inhibition HSD3 10 μM: 55.7%
[2]
  % Inhibition HSD1 1 μM: 20.4%
  % Inhibition HSD1 10 μM: 35.0%
[3]
  % Inhibition HSD2 1 μM: 10.5%
  % Inhibition HSD2 10 μM: 36.9%

## O=c1c2c(nc(CCC3CCCC3)n1CCc1cccs1)sc1c(O)cccc12 [No. 643]
[1]
  % Inhibition HSD3 1 μM: 23.4%
  % Inhibition HSD3 10 μM: 46.1%
[2]
  % Inhibition HSD1 1 μM: 15.7%
  % Inhibition HSD1 10 μM: 34.2%
[3]
  % Inhibition HSD2 1 μM: 20.1%
  % Inhibition HSD2 10 μM: 43.3%

## CCCCC(CC)c1nc2sc3c(O)cccc3c2c(=O)n1CCc1cccs1 (stereo not drawn) [No. 644]
[1]
  % Inhibition HSD3 1 μM: 13.9%
  % Inhibition HSD3 10 μM: 19.8%
[2]
  % Inhibition HSD1 1 μM: 29.8%
  % Inhibition HSD1 10 μM: 28.4%
[3]
  % Inhibition HSD2 1 μM: 27.6%
  % Inhibition HSD2 10 μM: 26.4%

## COCc1nc2sc3c(O)cccc3c2c(=O)n1CCc1cccs1 [No. 645]
[1]
  % Inhibition HSD3 1 μM: 21.7%
  % Inhibition HSD3 10 μM: 22.7%
[2]
  % Inhibition HSD1 1 μM: 17.2%
  % Inhibition HSD1 10 μM: 29.1%
[3]
  % Inhibition HSD2 1 μM: 48.8%
  % Inhibition HSD2 10 μM: 75.5%

## CC(C)=Cc1nc2sc3c(O)cccc3c2c(=O)n1CCc1cccs1 [No. 648]
[1]
  % Inhibition HSD3 1 μM: 17.7%
  % Inhibition HSD3 10 μM: 70.1%
[2]
  % Inhibition HSD1 1 μM: 18.0%
  % Inhibition HSD1 10 μM: 24.6%
[3]
  % Inhibition HSD2 1 μM: 16.0%
  % Inhibition HSD2 10 μM: 40.2%

## O=c1c2c(nc(CCc3ccccc3)n1Cc1ccccc1)sc1c(O)cccc12 [No. 659]
[1]
  % Inhibition HSD3 1 μM: 22.9%
  % Inhibition HSD3 10 μM: 76.1%
[2]
  % Inhibition HSD1 1 μM: 14.4%
  % Inhibition HSD1 10 μM: 35.4%
[3]
  % Inhibition HSD2 1 μM: 16.3%
  % Inhibition HSD2 10 μM: 33.9%

## O=c1c2c(nc(Cc3ccccc3)n1Cc1ccccc1)sc1c(O)cccc12 [No. 660]
[1]
  % Inhibition HSD3 1 μM: 16.6%
  % Inhibition HSD3 10 μM: 19.9%
[2]
  % Inhibition HSD1 1 μM: 21.7%
  % Inhibition HSD1 10 μM: 37.1%
[3]
  % Inhibition HSD2 1 μM: 19.8%
  % Inhibition HSD2 10 μM: 48.9%

## CCCCC(CC)c1nc2sc3c(O)cccc3c2c(=O)n1Cc1ccccc1 (stereo not drawn) [No. 663]
[1]
  % Inhibition HSD3 1 μM: 12.4%
  % Inhibition HSD3 10 μM: 45.6%
[2]
  % Inhibition HSD1 1 μM: 26.3%
  % Inhibition HSD1 10 μM: 24.6%
[3]
  % Inhibition HSD2 1 μM: 37.4%
  % Inhibition HSD2 10 μM: 57.6%

## CC(C)=Cc1nc2sc3c(O)cccc3c2c(=O)n1Cc1ccccc1 [No. 667]
[1]
  % Inhibition HSD3 1 μM: 16.9%
  % Inhibition HSD3 10 μM: 37.0%
[2]
  % Inhibition HSD1 1 μM: 20.1%
  % Inhibition HSD1 10 μM: 51.9%
[3]
  % Inhibition HSD2 1 μM: 20.9%
  % Inhibition HSD2 10 μM: 63.7%
